Reference: paper PMC11986975, “A Cdk5 inhibitor restores cognitive function and alleviates type 2 diabetes in mice” (iScience, 2025)

Tested on: HFD-fed mice
Test: Y-maze test in HFD mice
Format: in vivo
Conditions: i.p., 20 days
Experimental: As previously mentioned, the Y-maze test was utilized to evaluate the mouse groups' short-term spatial memory The Y-maze test was used to assess short-term spatial memory in the mouse groups. The apparatus consists of three arms arranged in a Y-shape, typically labeled A, B, and C, with each arm having the same length and width. Mice were initially placed in one arm (usually arm A) and allowed to explore freely for 5 min, with one of the other arms blocked off, restricting exploration to the starting arm and the remaining open arm. After a 5-min delay, the mouse was reintroduced to the maze with all arms accessible. The time spent in each arm and the number of entries into each arm were recorded over a 5-min period. […] We also evaluated the mice’s spontaneous alternation rate during the Y-maze test. Spontaneous alternation reflects working memory, as it refers to the mouse’s tendency to enter a less recently visited arm. The sequence and number of arm entries were tracked, with an alternation defined as consecutive entries into all three arms without repetition (e.g., A-B-C, B-C-A).[59]^,[60]^,[61] […] As a result, we evaluated the novel arm’s exploration according to many criteria.Spontaneous Alternation (%) = {(Number of alternations)/ (Total arm entries−2)} ×100

O=C(COc1ccccc1C(=O)Nc1cccc(Cl)c1Cl)Nc1ccc(N2CCOCC2)c(Cl)c1 [BLINK11, 2-(2-((3-chloro-4-morpholinophenyl)amino)-2-oxoethoxy)-N-(2,3-dichlorophenyl)benzamide]
Y-maze alteration percentage (20 mg/kg/day): did not exhibit any rescue effect | Y-maze alteration percentage (40 mg/kg/day): the decrease in alteration percentage was recovered
